Data published in US20260139003A1, “PEPTIDE WITH ACTIVITY OF PROMOTING HAIR GROWTH AND INHIBITING HAIR LOSS AND USE THEREOF” (CAREGEN CO., LTD., priority 2022, published 2026).
Where no end group is shown, it is not given here.

Legend:
[1] = system: MSX2; assay: MSX2 expression in HHGMCs (RT-PCR); assay type: cell-based, human; settings: 500 nM, 5 μM, and 50 μM, 24 hours, FIG. 7
Experimental: (§1) The effect of the peptide prepared in Preparation Example 1 above on the activation of human hair germinal matrix cells (HHGMCs) was confirmed by measuring the expression of MSX2, Homeobox C13 (HOXC13), and Forkhead Box N1 (FOXN1), which are transcription factors related to cell activation.
(§2) HHGMCs were seeded in a 6-well cell culture plate at a density of 4×10^5 cells/well and cultured for 24 hours under mesenchymal stem cell complete media conditions. Then, the medium was replaced with serum free mesenchymal stem cell medium and cultured for additional 24 hours. The cultured cell culture was treated with 500 nM, 5 μM, and 50 μM of the peptide prepared in Preparation Example 1 above, respectively, and treated with 100 nM of epidermal growth factor (EGF) as a positive control, and negative when not treated with anything to serve as a negative control (con), and these cultures were cultured at 37° C. for 24 hours. After washing each culture with PBS, RNA was isolated by treatment with 300 μL of eaay blue (Intron, South Korea). The isolated RNA was quantified using Nano drop, and then subjected to cDNA synthesis using a cDNA synthesis kit (Enzynomics, South Korea). […] The PCR reaction product was electrophoresed on a 1.5% agarose gel, and the bands were detected using the Bio-Rad Gel Image System.

[2] = system: DKK-1; assay: Expression of hair loss protein DKK-1 induced by DHT in HHFDPCs (Western blot); assay type: cell-based, human; settings: 500 nM, 5 μM, and 50 μM, DHT 100 nM simultaneously, 24 hours, FIG. 5
Source text: It is known that in hair follicles, dihydrotestosterone (DHT) promotes the expression of Dickkopf-1 (DKK-1), and DKK-1 induced by DHT inhibits the proliferation of keratinocytes in hair follicles and causes their apoptosis, thereby promoting hair loss (J of Invest Dermatolo. 2008, February, 128(2), pp. 262-269). The effect of the peptide prepared in Preparation Example 1 above on the expression level of the hair loss-inducing protein DKK-1 in human hair follicle dermal papilla cells (HHFDPCs) was confirmed by Western blot method.
HHFDPCs were seeded in a 6-well cell culture plate at a density of 4×10^5 cells/well and cultured for 24 hours under mesenchymal stem cell complete media conditions. Then, the medium was replaced with serum-free mesenchymal stem cell medium and cultured for additional 24 hours. The cultured cell culture was treated with 500 nM, 5 μM, and 50 μM of the peptide prepared in Preparation Example 1 above, respectively. treated with 5 μM of finasteride to serve as a positive control, and not treated with anything to serve as a negative control group (con). […] Equal amounts of protein samples were prepared by BCA quantification of cell lysates. […] The resultant was washed 3 times for 15 minutes each with 0.1% PBS-T (0.1% Tween-20 in PBS), treated with ECL solution (GE Healthcare, USA), and detected with a film.

[3] = system: Cyclin D1; assay: Cyclin D1 gene expression in HHFDPCs (RT-PCR); assay type: cell-based, human; settings: 500 nM, 5 μM, and 50 μM, 24 hours, FIG. 4
Experimental: (§3) The effect of the peptide prepared in Preparation Example 1 above on the expression levels of lymphoid enhancer-binding factor 1 (LEF-1), c-Myc, and Cyclin D1, which are downstream genes of beta-catenin, in human hair follicle dermal papilla cells (HHFDPCs) was determined by the RT-PCR method.
(§4) HHFDPCs were seeded in a 6-well cell culture plate at a density of 4×10^5 cells/well and cultured for 24 hours under mesenchymal stem cell complete media conditions. Then, the medium was replaced with serum free mesenchymal stem cell medium and cultured for additional 24 hours. The cultured cell culture was treated with the peptide prepared in Preparation Example 1 above at 500 nM, 5 μM, and 50 μM, respectively, and treated with 10 ng/mL of rhWnt-3a (recombinant human Wnt-3a protein, R&D systems (MN, USA) to serve as a positive control, and not treated with anything to serve as a negative control (con), and each was cultured at 37° C. for additional 24 hours. After washing each culture with PBS, RNA was isolated therefrom by treatment with 300 μL of eaay blue (Intron, South Korea). The isolated RNA was quantified using Nano drop, and then subjected to cDNA synthesis using a cDNA synthesis kit (Enzynomics, South Korea). […] The PCR reaction product was electrophoresed on a 1.5% agarose gel, and the bands were detected using the Bio-Rad Gel Image System.

[4] = system: LEF-1; assay: LEF-1 gene expression in HHFDPCs (RT-PCR); assay type: cell-based, human; settings: 500 nM, 5 μM, and 50 μM, 24 hours, FIG. 4
Experimental: as §3, §4

[5] = system: c-Myc; assay: c-Myc gene expression in HHFDPCs (RT-PCR); assay type: cell-based, human; settings: 500 nM, 5 μM, and 50 μM, 24 hours, FIG. 4
Experimental: as §3, §4

[6] = system: FOXN1; assay: FOXN1 expression in HHGMCs (RT-PCR); assay type: cell-based, human; settings: 500 nM, 5 μM, and 50 μM, 24 hours, FIG. 7
Experimental: as §1, §2

[7] = system: Keratin 5; assay: Keratin 5 gene expression in HHORSCs (RT-PCR); assay type: cell-based, human; settings: 500 nM, 5 μM, and 50 μM, 24 hours, FIG. 6
Experimental: (§5) The effect of the peptide prepared in Preparation Example 1 above on the activation of human hair outer root sheath cells (HHORSCs) was confirmed by measuring the gene expression of cytokeratin proteins.
(§6) HHORSCs were seeded in a 96-well cell culture plate at a density of 4×10^3 cells/well and cultured for 24 hours under mesenchymal stem cell complete media conditions. Then, the medium was replaced with serum free mesenchymal stem cell medium and cultured for additional 24 hours. The cultured cell culture was treated with 500 nM, 5 μM, and 50 μM of the peptide prepared in Preparation Example 1 above, respectively, and treated with 100 nM of epidermal growth factor (EGF) as a positive control, and negative when not treated with anything to serve as a negative control (con), and these cultures were cultured at 37° C. for 24 hours. After washing each culture with PBS, RNA was isolated by treatment with 300 μL of eaay blue (Intron, South Korea). The isolated RNA was quantified using Nano drop, and then subjected to cDNA synthesis using a cDNA synthesis kit (Enzynomics, South Korea). Then, a PCR reaction was performed using the primers shown in Table 3 below and a PCR premix (Enzynomics, South Korea). The PCR reaction product was electrophoresed on a 1.5% agarose gel, and the bands were detected using the Bio-Rad Gel Image System.

[8] = system: human hair follicle dermal papilla cells (HHFDPCs); assay: Proliferation of HHFDPCs (MTT); assay type: cell-based; settings: 500 nM, 5 μM, and 50 μM, 72 hours, absorbance 540 nm, FIG. 1
Experimental: The effect of the peptide prepared in Preparation Example 1 above on the proliferation of human hair follicle dermal papilla cells (HHFDPCs) was tested.
HHFDPCs were seeded in a 96-well cell culture plate at a density of 4×10^3 cells/well and cultured for 24 hours under mesenchymal stem cell complete media conditions. Then, the medium was replaced with serum-free mesenchymal stem cell medium and cultured for additional 24 hours. The cultured cell culture was treated with the peptide prepared in Preparation Example 1 above at 500 nM, 5 μM, and 50 μM, respectively, treated with 1 μM VEGF to serve as a positive control, and not treated with anything to serve as a negative control (con), and these cultures were cultured at 37° C. for additional 72 hours. Thereafter, 10 μL of MTT solution (5 mg/mL) was added thereto, and the mixture was incubated in a CO2 incubator at 37° C. for 4 hours, the medium was removed, and 100 μL of DMSO was added thereto and shaken for 10 minutes. Finally, the absorbance was measured at a wavelength of 540 nm using a spectrophotometer (Molecular Devices (SpectraMax iD3, CA, USA)).

[9] = system: Keratin 19; assay: Keratin 19 gene expression in HHORSCs (RT-PCR); assay type: cell-based, human; settings: 500 nM, 5 μM, and 50 μM, 24 hours, FIG. 6
Experimental: as §5, §6

[10] = system: extracellular-regulated kinase (ERK); assay: ERK phosphorylation in HHFDPCs (Western blot); assay type: cell-based, human; settings: 500 nM, 5 μM, and 50 μM, 24 hours, FIG. 2
Experimental: (§7) The effect of the peptide prepared in Preparation Example 1 above on the activation of proliferation-related signaling molecules in human hair follicle dermal papilla cells (HHFDPCs) was confirmed by Western blot method.
(§8) HHFDPCs were seeded in a 6-well cell culture plate at a density of 4×10^5 cells/well and cultured for 24 hours under mesenchymal stem cell complete media conditions. Then, the medium was replaced with serum-free mesenchymal stem cell medium and cultured for additional 24 hours. The cultured cell culture was treated with the peptide prepared in Preparation Example 1 above at 500 nM, 5 μM, and 50 μM, respectively, 1 μM of Minoxidil (MNX) was treated to serve as a positive control, and not treated with anything to serve as a negative control (con), and the cultures treated with these materials were cultured at 37° C. for additional 24 hours. After washing each culture with PBS, the cells were lysed by treatment with lysis buffer to obtain a cell lysate. Equal amounts of protein samples were prepared by BCA quantification of cell lysates. The prepared protein samples were subjected to electrophoresis using 10% SDS-PAGE. […] The resultant was washed 3 times for 15 minutes each with 0.1% PBS-T (0.1% Tween-20 in PBS), treated with ECL solution (GE Healthcare, USA), and detected with a film.

[11] = system: beta-catenin; assay: Activation of beta-catenin in HHFDPCs (nuclear protein Western blot); assay type: cell-based, human; settings: 500 nM, 5 μM, and 50 μM, 24 hours, nuclear proteins, FIG. 3
Experimental: The effect of the peptide prepared in Preparation Example 1 above on the activation of beta-catenin in human hair follicle dermal papilla cells (HHFDPCs) was confirmed by Western blot method.
HHFDPCs were seeded in a 6-well cell culture plate at a density of 4×10^5 cells/well and cultured for 24 hours under mesenchymal stem cell complete media conditions. Then, the medium was replaced with serum-free mesenchymal stem cell medium and cultured for additional 24 hours. The cultured cell culture was treated with the peptide prepared in Preparation Example 1 above at 500 nM, 5 μM, and 50 μM, respectively, and treated with 10 ng/mL of rhWnt-3a (recombinant human Wnt-3a protein, R&D systems (MN, USA) to serve as a positive control, and not treated with anything to serve as a negative control (con). The cultures treated with these materials were incubated at 37° C. for additional 24 hours. After washing each culture with PBS, nuclear proteins were isolated using a nuclear protein extraction kit (Thermo scientific, USA), and an equal amount of protein sample was prepared by BCA quantification. The prepared protein samples were subjected to electrophoresis using 10% SDS-PAGE. […] The resultant was washed 3 times for 15 minutes each with 0.1% PBS-T (0.1% Tween-20 in PBS), treated with ECL solution (GE Healthcare, USA), and detected with a film.

[12] = system: HOXC13; assay: HOXC13 expression in HHGMCs (RT-PCR); assay type: cell-based, human; settings: 500 nM, 5 μM, and 50 μM, 24 hours, FIG. 7
Experimental: as §1, §2

[13] = system: Keratin 14; assay: Keratin 14 gene expression in HHORSCs (RT-PCR); assay type: cell-based, human; settings: 500 nM, 5 μM, and 50 μM, 24 hours, FIG. 6
Experimental: as §5, §6

[14] = system: Akt; assay: Akt phosphorylation in HHFDPCs (Western blot); assay type: cell-based, human; settings: 500 nM, 5 μM, and 50 μM, 24 hours, FIG. 2
Experimental: as §7, §8

[15] = system: Ha3-II; assay: Ha3-II gene expression in HHORSCs (RT-PCR); assay type: cell-based, human; settings: 500 nM, 5 μM, and 50 μM, 24 hours, FIG. 6
Experimental: as §5, §6

RHVLKRR [peptide of Preparation Example 1]
expression of MSX2 [1]: increased | expression of DKK-1 induced by DHT treatment [2]: reduced in a concentration-dependent manner | gene expression of Cyclin D1 [3]: increased | gene expression of LEF-1 [4]: increased | gene expression of c-Myc [5]: increased | expression of FOXN1 [6]: increased | expression of Keratin 5 [7]: increasing | proliferation of HHFDPCs compared to the negative control (con) [8]: promoted the proliferation | expression of Keratin 19 [9]: increasing | phosphorylation of extracellular-regulated kinase (ERK) [10]: increased | beta-catenin activation and movement to the nucleus [11]: activated and its movement to the nucleus was increased | expression of HOXC13 [12]: increased | expression of Keratin 14 [13]: increasing | phosphorylation of Akt [14]: increased | expression of Ha3-II [15]: increasing
